Source: patent US20240199882A1, “THIENYL-DIBENZOAZEPINES AND THEIR DERIVATIVES AS DONORS FOR XANTHENE-BASED SHORT-WAVE INFRARED (SWIR) DYES” (Mississippi State University, priority 2022, published 2024)

What was measured:
[1] = Photophysical properties of the dyes in dichloromethane; assay type: physicochemical; settings: for QY / Stokes Shift / ε / λabs / λem: in dichloromethane (DCM)
Excerpt: The quantum yield (QY) of the dyes decreased as the absorption wavelength increased, which is common to these dyes.

[2] = Absorbance of DSPE-PEG encapsulated and co-encapsulated dyes; assay type: physicochemical; settings: co-encapsulated in DSPE-PEG (rNP-NO) versus separate
Excerpt: The SCR-NO and IR-1061 were encapsulated using DSPE-PEG (a common phospholipids-polymer conjugate) to give NP-SCR-NO and NP-IR-1061, respectively. […] However, when the components were co-encapsulated (rNP-NO, ratiometric NP for NO), there was observed a favorable ˜100 nm red-shift of the SCR-NO λabs into the SWIR region (FIG. 3A). The corresponding change for IR-1061 was minimal (1 nm).

absorption maxima [1]	PA brightness value (EC×(1−QY)) ([1]; calculated value) [M⁻¹ cm⁻¹]	QY [1] [%]	Stokes Shift [1]	ε [1]	λabs [1] [nm]	λem [1] [nm]	red-shift / change of λabs [2] [nm]	SMILES
840	82800	0.31	110	1.20 (M^−1cm^−1) × 10^5	840	950	–	CCOC(=O)c1ccccc1C1=c2cc/c(=C3/C=CC(=[N+]4c5ccccc5C=Cc5ccccc54)S3)cc2Oc2cc(-c3ccc(N4c5ccccc5C=Cc5ccccc54)s3)ccc21 [SCR-1]
1040	–	0.016	220	0.80 (M^−1cm^−1) × 10^5	1040	1260	–	CCOC(=O)c1ccccc1C1=c2cc/c(=c3/cc/c(=C4\C=CC(=[N+]5c6ccccc6C=Cc6ccccc65)S4)s3)cc2Oc2cc(-c3ccc(-c4ccc(N5c6ccccc6C=Cc6ccccc65)s4)s3)ccc21 [SCR-3]
–	–	–	–	–	–	–	1	ClC1=C(/C=C/c2cc(-c3ccccc3)[s+]c(-c3ccccc3)c2)CCC/C1=C/C=C1C=C(c2ccccc2)SC(c2ccccc2)=C1.F[B-](F)(F)F [IR-1061]
950	–	0.036	150	1.24 (M^−1cm^−1) × 10^5	950	1100	–	CCOC(=O)c1ccccc1C1=c2cc/c(=c3/cc4c(s3)=CC(=[N+]3c5ccccc5C=Cc5ccccc53)S4)cc2Oc2cc(-c3cc4sc(N5c6ccccc6C=Cc6ccccc65)cc4s3)ccc21 [SCR-2]
